The source made the active and inactive calls. No rule for the calls is given here.

The target in this assay is glucose-6-phosphate dehydrogenase-6-phosphogluconolactonase (Plasmodium falciparum 3D7). The assay can be described thus: PfG6PD enzyme inhibitors, direct NADPH readout, dose response, orthogonal assay, biochemical, end-point NADPH detection (AID 540252). As to conditions: purified PfG6PD enzyme.
`CS(=O)(=O)c1ccc(N)c(SSc2cc(S(C)(=O)=O)ccc2N)c1`: the IC50 (usually the midpoint of a concentration-inhibition curve) was 17.6 µM. In the case of `O=c1c2ccc(F)cc2sn1-c1ccccc1` it was 14.5 µM; in that of `OCc1ccccc1SSc1ccccc1CO`, 56.2 µM; in that of `CCN1CCN(c2nc(C)nc3c2sc(=S)n3C)CC1`, 43.7 µM. Turning to `COc1cccc(/C=N/NC(=O)CSc2cccc3cccnc23)c1`, the IC50 was > 80 µM (inactive). `CN1CCN(C(=S)C(=O)Nc2ccc(Br)cc2)CC1`: the IC50 was 67.9 µM.

Turning to `NCCNc1ccc(C(=O)N2c3ccccc3Sc3ccccc32)cc1[N+](=O)[O-]`, the IC50 was 13.2 µM. In the case of `O=C1C=CC2=C3c4cc(O)c(O)cc4CC3(O)COC2=C1O` (stereo unspecified), the IC50 is > 80 µM (inactive). In the case of `N#Cc1ccc(N=c2ssnc2Cl)cc1` it was 49 µM; in that of `O=C(COc1ccccc1F)OCC(=O)c1ccc([N+](=O)[O-])cc1`, 44.6 µM.

With `c1cc(CNc2ccc3c(c2)OCO3)ccn1`, the IC50 was > 80 µM (inactive). `COc1cc(/C=N/n2cc(-c3ccccc3)[nH]c2=S)cc(OC)c1O`: the IC50 was > 80 µM (inactive). As for `COc1c(O)ccc2c1CN1CCc3cc4c(cc3C1C2)OCO4` (stereo unspecified), the IC50 was > 80 µM (inactive).

On to `CCC(C)N(CCNC(=O)c1ccc2c(c1)NC(=O)c1ccccc1S2)C1CCCCC1` (stereo unspecified), for which the IC50 was 6.49 µM.

For the compound `COc1cc(CNc2ccc(N3CCCC3)cc2)cc(Cl)c1OC`, the IC50 was > 80 µM (inactive).

Take `O=C(Cn1sc2ccccc2c1=O)Nc1ccc(F)cc1`: the IC50 is 21.9 µM. With `CC1(C)CN(c2ccccc2)N(C(=O)c2ccc(C#N)cc2)C1=O` the figure was > 80 µM (inactive).

Take `Cc1cc(C)c2c(=O)n(CC(=O)NC3CCCC3)sc2n1`: the IC50 is > 80 µM (inactive). As to `COc1ccc2c(c1)c(=Cc1ccc(N(C)C)cc1)c1cc(-c3ccccc3)[n+](C)n12`, the IC50 was > 80 µM (inactive). Consider `COc1cc(N=c2ssnc2Cl)cc(OC)c1`, for which the IC50 was 72.6 µM. With `O=S(=O)(Nc1ccc(Cl)cc1)c1ccc(N2CCOCC2)c(NC(=S)NCCN2CCOCC2)c1` the figure was > 80 µM (inactive). In the case of `COc1ccc(CN(C)S(=O)(=O)c2nnc(NC(=O)c3ccc(C)cc3)s2)cc1OC`, the IC50 was > 80 µM (inactive). With `COc1ccc(/C=C/c2nc3ccccc3n2C)cc1` the figure was > 80 µM (inactive).

With `Cc1ccc2nc(SCC(=O)N/N=C/c3ccco3)cc(C)c2c1`, the IC50 is > 80 µM (inactive). With `Cc1ccsc1/C=N/NC(=O)c1cccc(S(=O)(=O)Nc2ccccc2Cl)c1` the figure was > 80 µM (inactive); with `COc1cc(N)c2ncccc2c1SC`, > 80 µM (inactive); with `COc1cc(N)c2ncsc2c1`, > 80 µM (inactive). In the case of `COc1cccc2nc3cc(C)c(C)cc3nc12` it was > 80 µM (inactive); in that of `CCN1CCCC1CNC(=O)c1ccc2c(c1)NC(=O)/C(=C\c1ccccc1F)S2` (stereo unspecified), > 80 µM (inactive). As for `CCOC(=O)Cc1cc(=O)n2[nH]c(C(C)(C)C)cc2n1`, the IC50 is > 80 µM (inactive).

Turning to `Cc1cc(N=NC(=O)c2ccccc2O)c2ccccc2c1O`, the IC50 is > 80 µM (inactive). Turning to `O=C(CCc1ccc(S(=O)(=O)N2CCOCC2)cc1)N/N=C/c1ccc(O)c(O)c1O`, the IC50 is > 80 µM (inactive).

On to `Cc1cnc(C=NNC(N)=S)c2cccc(N)c12`, for which the IC50 is > 80 µM (inactive). With `COc1c2ccoc2c(OCC=C(C)C)c2oc(=O)ccc12` the figure was > 80 µM (inactive); with `CC(SCC(=O)Nc1ccccc1)c1nc2ccccc2c(=O)[nH]1` (stereo unspecified), > 80 µM (inactive); with `COc1cc(N=Cc2c(CO)cnc(C)c2O)cc(OC)c1OC`, > 80 µM (inactive).

Take `Cc1ccccc1N/C(SCc1cccc(Br)c1)=C(/C#N)C(N)=O`: the IC50 is > 80 µM (inactive). In the case of `Cc1ccc(C(=O)NCC(=O)NCC(=O)OCC(=O)c2ccc([N+](=O)[O-])cc2)cc1` it was 48.4 µM; in that of `Cn1c(=O)c2c([nH]c(=S)n2CCCc2ccccc2)n(C)c1=O`, > 80 µM (inactive).

In the case of `O=C(CSc1nc2ccccc2[nH]1)NC1CCCc2ccccc21` (stereo unspecified), the IC50 was > 80 µM (inactive). As for `COc1ccc(C2(CNC(=O)c3ccc(OC)c([N+](=O)[O-])c3)CCCCC2)cc1OC`, the IC50 was > 80 µM (inactive). For `[O-]/[N+](=C\c1ccccc1)c1ccc(Br)cc1`, the IC50 was 66 µM.

For `Cn1c(=O)[nH]c(=O)c2c1nc([N+](=O)[O-])n2Cc1ccccc1`, the IC50 was > 80 µM (inactive).

Consider `CN1CC[C@@]2(C)c3cc(O)ccc3N(C)[C@@H]12`, for which the IC50 is > 80 µM (inactive). In the case of `O=c1c2ccccc2sn1-c1ccc(S(=O)(=O)N2CCCC2)cc1` it was 36.6 µM; in that of `COc1cc(NCc2ccccc2)c2ncn(C(C)C)c2c1`, > 80 µM (inactive); in that of `O=c1c2cc(C(F)(F)F)ccc2sn1-c1ccccc1`, 26.2 µM.

Take `CN1CCN(C(=S)c2ccc(Br)cc2)CC1`: the IC50 is > 80 µM (inactive). For `CCNc1cc2c(cc1O)CCC1C2CCC2(C)C(O)CCC12` (stereo unspecified), the IC50 is > 80 µM (inactive). As for `Cc1cc(O)c(C(C)C)cc1N=Cc1ccccc1[N+](=O)[O-]`, the IC50 was > 80 µM (inactive).

Regarding `O=c1c2cc(F)ccc2sn1-c1ccc(F)cc1`, the IC50 was 25.5 µM.

Consider `O=C(O)c1cc(N2C(=O)C=CC2=O)cc(N2C(=O)C=CC2=O)c1`, for which the IC50 was 18.9 µM. With `NCCc1cc(O)c(O)cc1O` the figure was > 80 µM (inactive). In the case of `COc1ccc(C(=O)Nc2sc3c(c2C(=O)O)CC(C)(C)OC3)cc1`, the IC50 was > 80 µM (inactive). With `COC(=O)C1=C(C(=O)OC)SC2(S1)C(C(=O)OC)=C(C(=O)OC)Sc1c2ssc1=O` the figure was > 80 µM (inactive); with `O=S(c1ccccc1O)S(=O)c1ccccc1O` (stereo unspecified), > 80 µM (inactive). In the case of `O=C(N/N=C/c1cccc([N+](=O)[O-])c1)C(=O)N1CCCCCC1` it was > 80 µM (inactive); in that of `COC(=O)[C@H](C)NC(=O)c1cc2c(cn1)[nH]c1ccccc12`, > 80 µM (inactive); in that of `CN(C)c1nc(=NCc2cccs2)ss1`, > 80 µM (inactive).

For `C/C(Cn1nnc([N+](=O)[O-])n1)=N\NC(=O)c1ccccc1O`, the IC50 is > 80 µM (inactive). In the case of `CCCCCCCCn1sccc1=O`, the IC50 is 46 µM.

`Cc1cc(C)c(NC(=S)NCC2CCN(C(C)c3ccccc3)C2)c(C)c1` (stereo unspecified): the IC50 is 64.1 µM. As for `CN=c1nc(-c2ccccc2)n(-c2ccccc2)s1`, the IC50 was 13.3 µM. Turning to `Cc1cc(C)c(S(=O)(=O)/N=C2/C=C(SCC(=O)O)C(=O)c3ccccc32)cc1C`, the IC50 was > 80 µM (inactive). Take `C=CCOc1c(Cl)cc(CNc2ccc(N(C)C)cc2)cc1OC`: the IC50 is > 80 µM (inactive).

With `O=C1C(Cl)=C(NCCc2ccccc2)C(=O)c2ccccc21`, the IC50 is > 80 µM (inactive). In the case of `O=C(NC1=CC(=O)c2ccccc2C1=O)c1ccccc1` it was > 80 µM (inactive); in that of `COc1ccc(C(=O)c2c(C(F)(F)F)oc3c2C(=O)c2ccccc2C3=O)cc1`, > 80 µM (inactive); in that of `O=c1c2ccccc2sn1-c1ccccc1F`, 14.9 µM. With `OCCN1CCN(C(=S)c2ccc(-c3ccccc3)cc2)CC1` the figure was > 80 µM (inactive); with `Cc1ccc(S(=O)(=O)/N=C2/C=C(C3C(=O)CC(C)(C)CC3=O)C(=O)c3ccccc32)cc1`, > 80 µM (inactive).

As for `CC1(C)CC2(CC(c3ccccc3F)c3ccc(O)c(O)c3O2)NC(=S)N1` (stereo unspecified), the IC50 is 32.1 µM. For the compound `C/C(Cn1nnc([N+](=O)[O-])n1)=N\NC(=O)c1ccc(O)cc1`, the IC50 was > 80 µM (inactive). With `CC(C)Sc1nnc(NC(=O)c2ccc3c(c2)OCO3)s1` the figure was > 80 µM (inactive); with `COc1cc(/C=C2\SC(c3ccc(C)cc3)=NC2=O)ccc1O`, > 80 µM (inactive). In the case of `Clc1nssc1=Nc1nncs1`, the IC50 was 35.6 µM. Regarding `CC1=NOC(=O)/C1=C\c1ccc(-c2ccccc2Br)o1`, the IC50 is > 80 µM (inactive). In the case of `CCOc1ccccc1CNc1ccc(O)cc1` it was > 80 µM (inactive). With `COCc1cc(=O)n2[nH]c(C(C)(C)C)cc2n1` the figure was > 80 µM (inactive). For the compound `Brc1cc2[nH]cnc2c2ccccc12`, the IC50 is > 80 µM (inactive). With `Cc1c(C(=O)N(Cc2ccccc2Cl)C2CCS(=O)(=O)C2)oc2ccccc12` (stereo unspecified) the figure was > 80 µM (inactive); with `O=C(NCCCN1CCOCC1)c1sc2cc([N+](=O)[O-])ccc2c1Cl`, 49.2 µM; with `[O-]/[N+](=C/c1cccnc1)c1ccc(Br)cc1`, > 80 µM (inactive). In the case of `NNC(=O)CN1C(c2ccccc2Br)=Nc2ccc(Br)cc2C1c1ccccc1` (stereo unspecified) it was > 80 µM (inactive). With `O=c1c2ccccc2sn1-c1ccc(Cl)cc1Cl` the figure was 16.9 µM. Take `Cc1cccc(-n2c(=S)[nH]c3sc4c(c3c2=O)CCc2ccccc2-4)c1`: the IC50 is > 80 µM (inactive). In the case of `Cc1ccc(NC(=O)c2cc(N3C(=O)C=CC3=O)ccc2Cl)cc1C`, the IC50 is 49.2 µM. In the case of `CCN1/C(=C/C=C/C=C/C=C/c2sc3ccccc3[n+]2CC)Sc2ccccc21` it was > 80 µM (inactive); in that of `O=C1C=CC(=O)N1c1ccc(N2CCCCC2)cc1`, 38 µM. For the compound `COc1ccc(N2CSC3=C(C#N)C(c4ccc(OC)c(OC)c4)CC(=O)N3C2)c(OC)c1` (stereo unspecified), the IC50 is > 80 µM (inactive). With `CC(C)c1nnc(NC(=O)c2sc3ccccc3c2Cl)s1` the figure was > 80 µM (inactive); with `CCOc1cc(CNc2ccc(N3CCCC3)cc2)cc(Cl)c1OC`, > 80 µM (inactive); with `NC(=O)N/N=C/c1ccc(-n2nncc2-c2ccc(Cl)cc2)cc1`, > 80 µM (inactive). For `O=C(Nc1ccc(N2CCN(C(=O)c3ccco3)CC2)c(Cl)c1)c1cc2ccccc2o1`, the IC50 was > 80 µM (inactive). In the case of `COc1ccc(OC)c2c1C(=O)C(Cl)=C(Cl)C2=O`, the IC50 was 23.3 µM.

With `Nc1ccc(N(CCO)CCO)cc1`, the IC50 is > 80 µM (inactive).
